Tested on: 3T3-L1 adipocytes
Test: Amino acid uptake or output of adipocytes (HPLC of spent medium)
Format: cell-based
Conditions: day 12 post-induction, positive value = uptake
Experimental: 3T3-L1 preadipocytes were plated onto 24-well plates and expanded in preadipocyte growth medium consisting of DMEM supplemented with calf serum (10% v/v), penicillin and streptomycin. Medium was replenished every other day. Two days post-confluence, the cells were induced to differentiate using an adipogenic cocktail (1 μg/ml insulin, 0.5 mM isobutylmethylxanthine, and 1 μM dexamethasone) added to a basal medium (DMEM with 10% fetal bovine serum and penicillin/streptomycin). After 48 hrs, the first medium was replaced with a second induction medium consisting of the basal adipocyte medium supplemented with only insulin. […] This basal medium was replenished every other day during the remainder of the culture experiments.
Metabolite measurements were performed both on cell lysates and spent medium samples as described previously (Si Y, Yoon J, Lee K. American journal of physiology 2007; 292:E1637-46). Cells were lysed in situ with an 0.1% SDS buffer and sonicated. Immediately after collection, the spent medium samples were cleaned of cell debris by a brief centrifugation step. Free glycerol, TG and free fatty acids (FFAs) were measured using enzymatic assay kits (SIGMA™). Glucose and lactate concentrations were measured using the methods of Trinder (Trinder P. J Clin Pathol 1969; 22:158-61) and Loomis (Loomis M E. J Lab Clin Med 1961; 57:966-9), respectively. Amino acids were quantified by HPLC using fluorescence-based detection following pre-column derivatization of primary or secondary amines with 6-aminoquinolyl-N-hydroxysuccinimidyl-carbamate (Cohen S A, De Antonis K M. J Chromatogr A 1994; 661:25-34). All metabolite data were normalized by the corresponding cell sample DNA content, which was determined with a fluorescence-based assay using the Hoechst dye.

In the case of O=C(O)Cc1ccccc1 [phenylacetate], the “ALA uptake or output” value (5 mM PA) is reported as 0.4 ± 0.1 mmol/g-DNA/2 days, the “ASN uptake or output” value (5 mM PA) is reported as −4.6 ± 0.2 mmol/g-DNA/2 days and the “ASP uptake or output” value (5 mM PA) is reported as 0.0 ± 0.0 mmol/g-DNA/2 days. For the same molecule, the “GLN uptake or output” value (5 mM PA) was −7.9 ± 0.6 mmol/g-DNA/2 days, the “GLU uptake or output” value (5 mM PA) was 0.3 ± 0.0 mmol/g-DNA/2 days and the “GLY uptake or output” value (5 mM PA) was −7.3 ± 0.2 mmol/g-DNA/2 days. The “HIS uptake or output” value (5 mM PA) was −0.1 ± 0.1 mmol/g-DNA/2 days, the “ILE uptake or output” value (5 mM PA) was 8.1 ± 0.3 mmol/g-DNA/2 days and the “LEU uptake or output” value (5 mM PA) was 8.6 ± 0.3 mmol/g-DNA/2 days. For the same molecule, the “LYS uptake or output” value (5 mM PA) was −1.8 ± 0.1 mmol/g-DNA/2 days, the “MET uptake or output” value (5 mM PA) was 0.1 ± 0.1 mmol/g-DNA/2 days and the “PHE uptake or output” value (5 mM PA) was −0.1 ± 0.1 mmol/g-DNA/2 days. The “PRO uptake or output” value (5 mM PA) was −1.4 ± 0.0 mmol/g-DNA/2 days, the “SER uptake or output” value (5 mM PA) was 4.5 ± 0.2 mmol/g-DNA/2 days and the “THR uptake or output” value (5 mM PA) was −1.2 ± 0.1^ mmol/g-DNA/2 days. For the same molecule, the “TYR uptake or output” value (5 mM PA) was 0.1 ± 0.2 mmol/g-DNA/2 days, the “VAL uptake or output” value (5 mM PA) was 5.1 ± 0.4 mmol/g-DNA/2 days and the “ALA uptake or output” value (10 mM PA) was −0.5 ± 0.1 mmol/g-DNA/2 days. The “ASN uptake or output” value (10 mM PA) was −5.9 ± 0.4 mmol/g-DNA/2 days, the “ASP uptake or output” value (10 mM PA) was 0.0 ± 0.0 mmol/g-DNA/2 days and the “GLN uptake or output” value (10 mM PA) was 2.6 ± 2.9 mmol/g-DNA/2 days. The “GLU uptake or output” value (10 mM PA) was 0.3 ± 0.0 mmol/g-DNA/2 days, the “GLY uptake or output” value (10 mM PA) was −7.9 ± 0.9^ mmol/g-DNA/2 days and the “HIS uptake or output” value (10 mM PA) was −0.1 ± 0.2 mmol/g-DNA/2 days. For the same molecule, the “ILE uptake or output” value (10 mM PA) was 7.5 ± 0.2 mmol/g-DNA/2 days, the “LEU uptake or output” value (10 mM PA) was 7.9 ± 0.2 mmol/g-DNA/2 days and the “LYS uptake or output” value (10 mM PA) was −2.0 ± 0.2 mmol/g-DNA/2 days. For the same molecule, the “MET uptake or output” value (10 mM PA) was 0.1 ± 0.2 mmol/g-DNA/2 days, the “PHE uptake or output” value (10 mM PA) was −0.1 ± 0.4 mmol/g-DNA/2 days and the “PRO uptake or output” value (10 mM PA) was −2.1 ± 0.2 mmol/g-DNA/2 days. For the same molecule, the “SER uptake or output” value (10 mM PA) was 4.6 ± 0.5 mmol/g-DNA/2 days, the “THR uptake or output” value (10 mM PA) was −1.4 ± 0.4^ mmol/g-DNA/2 days and the “TYR uptake or output” value (10 mM PA) was −0.0 ± 0.4 mmol/g-DNA/2 days. The “VAL uptake or output” value (10 mM PA) was 3.8 ± 0.4 mmol/g-DNA/2 days.
